Measured values published in patent publication US20240270821A1, “GIP/GLP1/GCG TRI-RECEPTOR AGONISTS AND USES THEREOF” (priority 2023, published 2024).
Read-outs that look alike come from different tables or passages of the source. Starred links: 1 amine or outer side, 2 acyl side, 3 side chain; linkers in the order of their positions; H or OH if unused. Non-standard residues stand in square brackets, D forms with d. Groups on a side chain read outwards from the residue. No end group written: not given here. *: point of attachment. C20 diacid = O=C(O)CCCCCCCCCCCCCCCCCCC(=O)*; C18 diacid = O=C(O)CCCCCCCCCCCCCCCCC(=O)*; γGlu = O=C(O)[C@H](CCC(=O)[*:2])N[*:1]; 4Pal = N[C@@H](Cc1ccncc1)C(=O)O; αMeL = CC(C)C[C@](C)(N)C(=O)O; Orn = NCCC[C@H](N)C(=O)O; AEEA = NCCOCCOCC(=O)O; Aib = CC(C)(N)C(=O)O

Legend:
Format in all cases: cell-based
hGcgR = hGcgR (Homo sapiens, UniProt P47871); test: Functional cAMP activation in the presence of 0.1% casein (no HSA);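 further: intracellular cAMP rise after 30 min at 37 °C, read by HTRF against a cAMP standard curve, scaled from buffer only (0%) to maximal control ligand response (100%)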
Sequence of hGcgR (P47871 26-477): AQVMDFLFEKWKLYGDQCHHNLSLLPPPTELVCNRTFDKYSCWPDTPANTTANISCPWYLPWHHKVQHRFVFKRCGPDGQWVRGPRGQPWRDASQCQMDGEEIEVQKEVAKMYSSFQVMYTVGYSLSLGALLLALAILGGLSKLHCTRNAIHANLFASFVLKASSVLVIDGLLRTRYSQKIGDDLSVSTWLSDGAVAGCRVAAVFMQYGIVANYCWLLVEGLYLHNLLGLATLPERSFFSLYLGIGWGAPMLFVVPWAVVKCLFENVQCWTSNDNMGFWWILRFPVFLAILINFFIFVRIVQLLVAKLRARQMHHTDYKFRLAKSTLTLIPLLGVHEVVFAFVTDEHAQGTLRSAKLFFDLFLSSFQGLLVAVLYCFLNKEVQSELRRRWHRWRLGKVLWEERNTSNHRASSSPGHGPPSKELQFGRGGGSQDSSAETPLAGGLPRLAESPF

hGIPR [1] = molecular target: T1, hGIPR (Homo sapiens, UniProt P48546); test: as above;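 further: intracellular cAMP rise after 30 min at 37 °C read by HTRF against a standard curve, scaled between buffer alone (0%) and top control ligand concentration (100%), four-parameter fit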
T1 sequence (P48546 22-466): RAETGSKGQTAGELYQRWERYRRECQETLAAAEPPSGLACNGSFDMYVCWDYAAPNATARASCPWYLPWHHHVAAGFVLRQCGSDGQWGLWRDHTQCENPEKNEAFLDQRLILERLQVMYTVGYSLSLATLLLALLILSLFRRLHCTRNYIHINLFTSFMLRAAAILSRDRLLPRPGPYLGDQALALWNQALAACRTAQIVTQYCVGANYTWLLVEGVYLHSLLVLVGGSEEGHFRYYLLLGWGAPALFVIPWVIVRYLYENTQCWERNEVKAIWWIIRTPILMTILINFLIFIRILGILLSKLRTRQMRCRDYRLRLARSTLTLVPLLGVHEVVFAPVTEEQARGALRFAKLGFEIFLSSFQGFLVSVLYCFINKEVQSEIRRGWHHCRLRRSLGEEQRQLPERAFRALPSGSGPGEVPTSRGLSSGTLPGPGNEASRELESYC

hGLP-1R [2] = molecular target: T2, hGLP-1R (Homo sapiens, UniProt P43220); test: as above;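 further: intracellular cAMP rise after 30 min at 37 °C read by HTRF, normalized between buffer only (0%) and maximal control ligand (100%), four-parameter variable-slope fit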
T2 sequence (P43220 24-463): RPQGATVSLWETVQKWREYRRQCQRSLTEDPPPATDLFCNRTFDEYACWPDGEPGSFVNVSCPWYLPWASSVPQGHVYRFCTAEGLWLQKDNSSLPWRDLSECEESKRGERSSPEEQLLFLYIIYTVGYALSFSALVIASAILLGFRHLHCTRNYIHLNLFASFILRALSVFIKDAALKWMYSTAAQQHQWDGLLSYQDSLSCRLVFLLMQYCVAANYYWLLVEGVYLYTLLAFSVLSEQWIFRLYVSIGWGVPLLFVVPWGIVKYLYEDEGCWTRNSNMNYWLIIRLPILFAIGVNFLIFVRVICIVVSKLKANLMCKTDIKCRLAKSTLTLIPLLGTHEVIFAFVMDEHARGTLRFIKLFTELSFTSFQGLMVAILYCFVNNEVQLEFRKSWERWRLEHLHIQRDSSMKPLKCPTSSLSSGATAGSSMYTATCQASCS

human GcgR = human GcgR (Homo sapiens, UniProt P47871); test: Functional cAMP activity in the presence of 1% HSA
Sequence of human GcgR (P47871 26-477): as the sequence (P47871 26-477) above

hGLP-1R [3] = molecular target: T2, hGLP-1R; test: Functional cAMP activity in the presence of 1% HSA
human GLP1-R = human GLP1-R (Homo sapiens, UniProt P43220); test: GLP1-R internalization assay in HEK293 cells; details: for Internalization % TOP: normalized to maximum concentration of GLP-1 (100%)
Sequence of human GLP1-R (P43220 24-463): as the sequence (P43220 24-463) above

hGIPR [4] = molecular target: T1, hGIPR; test: Functional cAMP activity in the presence of 1% HSA
[5] = in the presence of 0.1% casein (no HSA), geometric mean, read-out: Relative cAMP EC50, hGcgR
[6] = in the presence of 0.1% casein (no HSA), geometric mean, read-out: Relative cAMP EC50, hGIPR
[7] = in the presence of 0.1% casein (no HSA), geometric mean, read-out: Relative cAMP EC50, hGLP-1R
[8] = read-out: cAMP Rel EC50, hGLP-1R
[9] = HEK293 cells expressing SNAP-GLP-1R, read-out: GLP1R Internalization EC50

Compound | EC50 (hGcgR; [5]) | EC50 (hGIPR [1]; [6]) | EC50 (hGLP-1R [2]; [7]) | EC50 (human GcgR; read-out: cAMP Rel EC50, hGcgR) | EC50 (hGLP-1R [3]; [8]) | EC50 (human GLP1-R; [9]) | Internalization % TOP (human GLP1-R) | EC50 (hGIPR [4]; read-out: cAMP Rel EC50, hGIPR) | EC50 (hGcgR) | EC50 (hGIPR [1]) | EC50 (hGLP-1R [2]) | EC50 (human GcgR) | EC50 (hGLP-1R [3]) | EC50 (human GLP1-R) | EC50 (hGIPR [4])
H-Y[Aib]QGTFTSDFS[Orn][αMeL]LDKK([AEEA-γGlu-C18 diacid])AQ[Aib]AFIEYLLE[Aib]GPSSG[Aib]PPPSGS-NH2 [Example 239] | 2.14 nM | 0.0503 nM | 2.9 nM | 693 nM | 419 nM | 72.6 nM | 42.9% | 12 nM |  |  |  |  |  |  | 
H-Y[Aib]QGTFTSD[4Pal]SK[αMeL]LDKK([AEEA-γGlu-C18 diacid])AQ[Aib]AFIEYLIE[Aib]GESSGEPPPSGS-NH2 [Example 282] | 6.98 nM | 0.163 nM | 1.09 nM | 1830 nM | 217 nM | 28.7 nM | 71.9% | 22.1 nM |  |  |  |  |  |  | 
Y[Aib]QGTFTSDFS[Orn][αMeL]LDKK([AEEA-AEEA-γGlu-C18 diacid])AQ[Aib]AFIEYLLE[dA]GPSSG[4Pal]PPPSGS-NH2 [Example 254] | 4.9 nM | 0.121 nM | 3.08 nM | 767 nM | 265 nM | 31.9 nM | 47.8% | 21.4 nM |  |  |  |  |  |  | 
H-Y[Aib]QGTFTSDFS[Orn][αMeL]LDKK([AEEA-AEEA-γGlu-C18 diacid])AQ[Aib]AFIEYLLE[Aib]GPSSGEPPPSGT-NH2 [Example 167] | 5.05 nM | 0.101 nM | 6.19 nM | 938 nM | 1300 nM | 75.9 nM | 44.7% | 24.7 nM |  |  |  |  |  |  | 
CC[C@H](C)[C@H](NC(=O)[C@H](Cc1ccccc1)NC(=O)[C@H](C)NC(=O)[C@](C)(Cc1ccncc1)NC(=O)[C@H](CCC(N)=O)NC(=O)[C@H](C)NC(=O)[C@H](CCCCNC(=O)COCCOCCNC(=O)CC[C@H](NC(=O)CCCCCCCCCCCCCCCCC(=O)O)C(=O)O)NC(=O)[C@H](CCCCN)NC(=O)[C@H](CC(=O)O)NC(=O)[C@H](CC(C)C)NC(=O)[C@](C)(CC(C)C)NC(=O)[C@H](CCCNC(=N)N)NC(=O)[C@H](CO)NC(=O)[C@H](Cc1ccccc1)NC(=O)[C@H](CC(=O)O)NC(=O)[C@H](CO)NC(=O)[C@@H](NC(=O)[C@H](Cc1ccccc1)NC(=O)[C@@H](NC(=O)CNC(=O)[C@H](CCC(N)=O)NC(=O)C(C)(C)NC(=O)[C@@H](N)Cc1ccc(O)cc1)[C@@H](C)O)[C@@H](C)O)C(=O)N[C@@H](CCC(=O)O)C(=O)N[C@@H](Cc1ccc(O)cc1)C(=O)N[C@@H](CC(C)C)C(=O)N[C@H](C(=O)N[C@@H](CCC(=O)O)C(=O)NC(C)(C)C(=O)NCC(=O)N[C@@H](CCC(=O)O)C(=O)N[C@@H](CO)C(=O)N[C@@H](CO)C(=O)NCC(=O)N[C@@H](C)C(=O)N1CCC[C@H]1C(=O)N1CCC[C@H]1C(=O)N1CCC[C@H]1C(=O)N[C@@H](CO)C(=O)NCC(=O)N[C@@H](CO)C(N)=O)[C@@H](C)CC [Example 230] |  |  |  |  |  |  | 31.2% |  | 1.61 nM | 0.0909 nM | 0.937 nM | 388 nM | 199 nM | 34.4 nM | 21.6 nM
H-Y[Aib]QGTFTSDFSK[αMeL]LDKK([AEEA-γGlu-C20 diacid])AQ[Aib]AFIEWLLEGGPSSGAPPPSEG-NH2 [Example 37] | 6.83 nM | 0.207 nM | 1.66 nM | 1870 nM | 514 nM | 51.6 nM | 68.3% | 56.4 nM |  |  |  |  |  |  | 
H-Y[Aib]QGTFTSDFS[Orn][αMeL]LDKK([AEEA-AEEA-γGlu-C20 diacid])AQ[Aib]AFIEYLLE[Aib]GPSSGAPPPGEG-NH2 [Example 70] |  |  |  |  |  |  | 61.3% |  | 6.04 nM | 0.102 nM | 2.71 nM | 717 nM | 620 nM | 60 nM | 27.4 nM
CC[C@H](C)[C@H](NC(=O)[C@H](Cc1ccccc1)NC(=O)[C@H](C)NC(=O)C(C)(C)NC(=O)[C@H](CCC(N)=O)NC(=O)[C@H](C)NC(=O)[C@H](CCCCNC(=O)COCCOCCNC(=O)COCCOCCNC(=O)CC[C@H](NC(=O)CCCCCCCCCCCCCCCCCCC(=O)O)C(=O)O)NC(=O)[C@H](CCCCN)NC(=O)[C@H](CC(=O)O)NC(=O)[C@H](CC(C)C)NC(=O)[C@](C)(CC(C)C)NC(=O)[C@H](CCCCN)NC(=O)[C@H](CO)NC(=O)[C@H](Cc1ccccc1)NC(=O)[C@H](CC(=O)O)NC(=O)[C@H](CO)NC(=O)[C@@H](NC(=O)[C@H](Cc1ccccc1)NC(=O)[C@@H](NC(=O)CNC(=O)[C@H](CCC(N)=O)NC(=O)C(C)(C)NC(=O)[C@@H](N)Cc1ccc(O)cc1)[C@@H](C)O)[C@@H](C)O)C(=O)N[C@@H](CCC(=O)O)C(=O)N[C@@H](Cc1ccc(O)cc1)C(=O)N[C@@H](CC(C)C)C(=O)N[C@@H](CC(C)C)C(=O)N[C@@H](CCC(=O)O)C(=O)NC(C)(C)C(=O)NCC(=O)N1CCC[C@H]1C(=O)N[C@@H](CO)C(=O)N[C@@H](CO)C(=O)NCC(=O)N[C@@H](C)C(=O)N1CCC[C@H]1C(=O)N1CCC[C@H]1C(=O)N1CCC[C@H]1C(=O)NCC(=O)N[C@@H](CCC(=O)O)C(=O)NCC(N)=O [Example 55] |  |  |  |  |  |  | 70.7% |  | 5.2 nM | 0.0856 nM | 1.96 nM | 960 nM | 479 nM | 79.5 nM | 27.8 nM
H-Y[Aib]QGTFTSD[4Pal]S[Orn][αMeL]LDKK([AEEA-γGlu-C18 diacid])AQ[Aib]AFIEWLLEGGPSSGEPPPSGE-NH2 [Example 115] | 10.6 nM | 0.457 nM | 7.6 nM | 2210 nM | 1460 nM | 255 nM | 56.5% | 73.9 nM |  |  |  |  |  |  | 
H-Y[Aib]QGTFTSDFS[Orn][αMeL]LDKK([AEEA-γGlu-C18 diacid])AQ[Aib]AFIEYLLAGGPSSGAPPPSGD-NH2 [Example 85] | 7.63 nM | 0.157 nM | 2.73 nM | 1270 nM | 387 nM | 326 nM | 48.3% | 22.1 nM |  |  |  |  |  |  | 
H-Y[Aib]QGTFTSDFSK[αMeL]LDKK([AEEA-γGlu-C18 diacid])AQ[Aib]AFIEYLLEGGPSSGAPPPSGS-NH2 [Example 141] | 1.77 nM | 0.21 nM | 1.96 nM | 877 nM | 562 nM | 95.3 nM | 64.1% | 62.1 nM |  |  |  |  |  |  | 
H-Y[Aib]QGTFTSDFS[Orn][αMeL]LDKK([AEEA-γGlu-C18 diacid])AQ[Aib]AFIEWLLEGGHSSGAPPPSGE-NH2 [Example 122] | 3.95 nM | 0.189 nM | 3.93 nM | 548 nM | 468 nM | 57.4 nM | 43.7% | 32.6 nM |  |  |  |  |  |  | 
H-Y[Aib]QGTFTSDFS[Orn][αMeL]LDKK([AEEA-AEEA-γGlu-C18 diacid])AQ[Aib]AFIEYLLE[dA]GPSSGEPPPSGE-NH2 [Example 117] | 4.75 nM | 0.267 nM | 6.4 nM | 867 nM | 524 nM | 45.5 nM | 51% | 29.9 nM |  |  |  |  |  |  | 
H-Y[Aib]QGTFTSDFS[Orn][αMeL]LDKK([AEEA-γGlu-C18 diacid])AQ[Aib]AFIEYLLE[Aib]GPSSGAPPPSGT-NH2 [Example 200] | 2.83 nM | 0.0739 nM | 3.19 nM | 360 nM | 395 nM | 86.1 nM | 39.2% | 13.7 nM |  |  |  |  |  |  | 
H-Y[Aib]QGTFTSDFS[Orn][αMeL]LDKK([AEEA-γGlu-C18 diacid])AQ[Aib]AFIEWLLEGGPSSGAPPPSGS-NH2 [Example 168] | 5.54 nM | 0.233 nM | 2.44 nM | 1270 nM | 281 nM | 74.8 nM | 38.7% | 31.9 nM |  |  |  |  |  |  | 
H-Y[Aib]QGTFTSDFS[Orn][αMeL]LDKK([AEEA-γGlu-C18 diacid])AQ[Aib]AFIEYLIE[Aib]GESSGAPPPSGE-NH2 [Example 219] | 7.77 nM | 0.119 nM | 0.835 nM | 1870 nM | 221 nM | 48 nM | 37.2% | 23.3 nM |  |  |  |  |  |  | 
H-Y[Aib]QGTFTSD[4Pal]SK[αMeL]LDKK([AEEA-γGlu-C18 diacid])AQ[Aib]AFIEYLIE[Aib]GESSGAPPPSGS-NH2 [Example 280] | 8.63 nM | 0.105 nM | 0.95 nM | 1600 nM | 171 nM | 39.4 nM | 74.9% | 15.6 nM |  |  |  |  |  |  | 
